The values that follow come from patent US20200121721A1, “METHODS FOR GENETIC MODIFICATION OF HEMATOPOIETIC CELLS” (THE BRIGHAM AND WOMEN'S HOSPITAL, INC., priority 2014, published 2020).

Square brackets hold non-standard residues; d marks the D form. Peptide text beside a SMILES is read from it. Aoe = N[C@@H](CCCCCC(=O)[C@@H]1CO1)C(=O)O

The subject of data set [1] is primary human CD34+ cells from PBSC. The data set is described as follows: Screening of compounds which increase CD34+CD90+ cells (high throughput flow cytometry). Format: cell-based. Conditions: for CD34+CD90+ population compared with that of DMSO treated CD34+ cells: PBSC CD34+ cells, 4 or 5-day culture with cytokines (CC100), FIG. 1A; for absolute number of CD34+CD90+ cells: screen, compared with other compounds, FIG. 1B. An excerpt: Cells were stained with antihuman CD34 monoclonal antibody conjugated to phycoerythrin (PE), or allophycocyanin (APC), antihuman CD90 conjugated fluorescein isothiocyanate (FITC) or APC, CD38 APC, CD 3 tri-color (TC), CD19 TC, CD11b TC, CD41 TC, CD45 FITC and mouse CD45 APC. The flow cytometry data were collected using FACS Calibur flow cytometer (Becton Dickinson, San Jose, Calif., USA) or and analysed by using FLOWJO software.
To identify or confirm the molecules that expand CD34+CD90+ cells, the Inventors developed an assay using primary human CD34+ cells from PBSC and evaluated CD34 and CD90 expression by high throughput flow cytometry after a 4 or 5-day culture.
Using this assay, the Inventors screened FDA approved 446 compounds and 14 small molecule drugs including a panel of epigenetic modifiers as shown in Table 2. Human PBSC CD34+ cells were purified and cultured in IMDM with fetal bovine serum (FBS; GIBCO; final concentration 30%) and CC100 (a CD34 maintaining culture medium containing stem cell factor; SCF, Flt3 ligand; FL, Interleukin-3; IL3 and Interleukin-6; IL6; Stem Cell Technologies).
A general note: A flow cytometer gives signals particle by particle.

The subject of data set [2] is PBSC CD34+ cells. Kind of data set: Ex vivo culture of PBSC CD34+ cells with TSA or MS275 (CD34+CD90+ expansion, cell growth). Format: cell-based, human. Conditions: for expression of CD34+CD90+ cells after one day exposure: 24 hours exposure then washed or not washed, evaluated on day 3 and day 5; for growth rate compared with DMSO / cell growth (cell number) of CD34+ cells: FIG. 3A; for cell growth (cell number) of CD34+ cells: mean±SDV of three experiments; for absolute number of CD34+CD90+ cells: from day 5 to day 7.

Data set [3] deals with CD34+ cells. The data set is described as follows: Annexin V staining (apoptosis). Format: cell-based, human. Conditions: day 3, 5 and 7. Here is the method:
To investigate whether the lower total nucleated cell number observed in TSA treated culture was possibly due to apoptosis, annexin V staining with TSA, MS275 or DMSO treated cells on day 3, 5 and 7 was performed.

Data set [4] has as its system PBMC CD34+ cells. The data set is described as follows: In vitro colony formation in methylcellulose (CFU assay). It is filed as cell-based, human. As to conditions: eight days after plating. Here is the method:
Tubes of MethoCult® H4434 (Stem Cell Technologies) medium were thawed overnight in a 4° C. refrigerator. The next morning CB CD34+ cells were prepared at 10× the final concentration required. Cell suspensions of 2000 cells per 0.3 mL were prepared. Cells were added to 3 mL of MethoCult® medium for duplicate cultures. A 16 gauge blunt-end needle attached to a 3 cc syringe was used to dispense the cells and MethoCult® medium into culture dishes. 1.1 mL of cells was dispensed per 35 mm dish. The two dishes were placed into a 100 mm petri dish and a third, uncovered 35 mm dish containing 3 mL of sterile water was also added. All 3 dishes were then covered within the 100 mm petri dish. […] […] CFUs were counted under the microscopy.
Since the CD34+CD90+ cells are a CD34+ subpopulation with severe combined immunodeficient (SCID) repopulating activity (SRA), The Inventors next test whether the preferential expansion of these cells mediated by TSA or MS-275 treatment can lead to increased hematopoietic differentiation/proliferation in vitro and SRA engraftment in vivo. The Inventors first treated PBMC CD34+ cells with TSA or MS-275 treatments followed by assessment of in vitro colony formation in methylcellulose. […] To quantify large and small colonies, The Inventors classified as large as >50 and small as 5-50 clusters, respectively.

For data set [5], the system named is CD34+ cells. The data set is described as follows: CFSE labeling to assess cell division. Conditions: by day 5, CFSE. Format: cell-based, human. The protocol: Primary CD34+ cells were labeled for 10 minutes at 37° C. with 0.5 uM of carboxyfluorescein diacetate succinimidyl ester (CSFE; Invirtogen, NY, USA) in PBS. After […] of culture, cell were labeled with CD34 PE and analyzed for a progressive decline of fluoredcence intensity of CSFE using FACSCalibur flow cytometer.
To assess whether the lower total nucleated cell number observed in TSA treated culture was due to a delay in differentiation or proliferation, the Inventors performed a cell-division-monitoring dye carboxyfluorescein succinimidyl ester (CFSE) assay, a fluorescent cytoplasmic dye which allowed counting of cell divisions of CD34+ cells after in vitro culture. While 66.0% of non-treated CD34+ cells divided at least more than 4 times by day 5, only 9.02% of TSA treated cells went through a similar number of cell divisions (FIG. 3B).
The Inventors then investigated whether TSA treatment led to increased CD34+CD90+ cells through self-renewal proliferation as assessed by surface markers. Using CD34+CD90− cells as a control population, the cell division profile of CD34+CD90+ cells upon TSA treatment was analyzed using the CSFE assay after 5 and 7 days of in vitro culture.

Another data set relates to CB CD34+ cells. Kind of data set: Engraftment of cultured CD34+ cells in NSG mice (SCID repopulating activity). Format: in vivo. Here is the method:
NSG (NOD.Cg-Prkdcscid Il2rgtm1Wjl/SzJ, The Jackson Laboratory, ME, USA) mice were bred and maintained in the Children's Hospital Boston animal facility. All animal work has been approved by and done according to the guidelines of the IACUC under protocol 10-101832. The CB CD34+ cells treated with wild type-peptide and scrambled-peptide were injected intravenously via the tail vein into sub-lethally irradiated (220 rads) 8 to 16-week-old NSG mice. Engraftment was performed within 24 h after irradiation. Peripheral blood (PB) chimerism was monitored at 2 and 8 weeks post transplantation. Bone marrow (BM) chimerism was monitored at 8 weeks post transplantation. […] The percentage of human CD45+ cells was calculated as follows: % human CD45+ cells=No. human CD45+ cells/(No. human CD45+ cells + No. mouse CD45+ cells)×100. […]
Based on in vitro phenotypic analysis described above, The Inventors transplanted cells after culture for 5 or7 days with cytokine alone or TSA into NSG mice to evaluate immunodeficient (SCID) repopulating activity (SRA) as a measure of enhanced HSPC function. Because Vanheuden et al, reported that severe combined immunodeficient (SCID) repopulating activity (rSRA) is mediated by CD34+CD38CD90+CD45RA− cells after in vitro culture, the Inventors first analyzed SRA activity in peripheral blood (PB) 2 weeks after transplant.

Data set [6] has as its system PBMC CD34+ cells. The data set is described as follows: Lentiviral transduction (GFP vector) of CD34+ cells. Format: cell-based, human. The protocol:
Lentiviral particles were generated by transient co-transfection of 293T cells with the lentiviral vectors pLL3.7, pHR'8.9ΔVPR and pCMV-VSVG. CD34+ cells were infected in medium containing lentiviral particles and 8 μg/ml protamin. The culture medium was then removed and replaced with fresh media.
Next, the Inventors investigated whether expansion of CD34+CD90+ cells by TSA could affect the lentiviral transduction efficacy. A transfer vector encoding green fluorescent protein (GFP) was used for evaluation of lentiviral transduction. PBMC CD34+ cells were cultured with or without TSA for 3 days, followed by lentiviral transduction with protamin twice for 48 hours (FIG. 15A).

Data set [7] has as its system PBSC CD34+ cells. The data set is described as follows: Real-time PCR of stem cell related genes. Format: cell-based, human. Conditions: 3 days of culture, relative to DMSO, p<0.05. An excerpt:
Inventors prepared RNA from cells treated with wild-type or scrambled peptide using TRIzol (Invitrogen). The Inventors synthesized cDNA using iScript cDNA Synthesis kit (Bio-Rad, CA, USA). To quantitate the level of mRNAs expression, The Inventors carried out polymerase chain reaction (PCR) amplification using iScript one-step RT-PCR kit with SYBER Green (Bio-Rad) and the PCR products were detected by use of SYBR green technology (ABI, Foster City, Calif., USA). GAPDH was used as an endogenous control. All samples were run in duplicate. Thermal cycler conditions were 50° C. for 2 minutes, 95° C. for 10 minutes, and 45 cycles of 95° C. for 0.30 minutes and 60° C. for 1 minute. Results were obtained as threshold cycle (Ct) values and normalized gene expression with GAPDH. Data were analyzed based on 2-ΔΔCT method using CFX Manager software (Bio-Rad). For QPCR primers see Table 1.
Next, to investigate the molecular mechanism responsible for the expansion of functional HSCs and HSPC observed following TSA treatment, the Inventors examined expression levels of a number of genes involved in self-renewal or differentiation of stem cells using realtime PCR.
(Real-time PCR tracks product formation cycle by cycle.)

In data set [8] the test system is cord blood CD34+CD90+ cells. As to conditions: cited from earlier work.
In data set [9] the test system is CD34+ cells. The data set is described as follows: UM171 effect on division of CD34+ cells (total cell numbers). As to conditions: 50 nM to 500 nM (1 uM); commercial and synthesized UM171. Format: cell-based.

Consider `Nc1ccccc1NC(=O)c1ccc(CNC(=O)OCc2cccnc2)cc1` [MS275], for which, in [1], the “CD34+CD90+ population compared with that of DMSO treated CD34+ cells” value (“CD34+CD90+ population compared with that” below) is reported as “expanded CD34+CD90+ population” and the “absolute number of CD34+CD90+ cells” value is recorded as “expanded the absolute number of CD34+CD90+ cells more than that of other compounds”. In the data set with PBSC CD34+ cells [2], the “expression of CD34+CD90+ cells after one day exposure” value is “limit the expression of CD34+CD90+ cells”, the “growth rate compared with DMSO” value is “about 2 times lower”, the “cell growth (cell number) of CD34+ cells” value was 16.7×10^4±1.06 and the “absolute number of CD34+CD90+ cells” value is “increased”. In addition, the “apoptotic cells (annexin V)” value in the data set on CD34+ cells [3] (500 nM) is recorded as “did not significantly increased apoptotic cells”. The “size of colonies derived from CFU-GM compared with control group” value in the data set on PBMC CD34+ cells [4] is given as “much larger than control group”.

Regarding `O=C(CCCCCCC(=O)Nc1ccccc1)NO` [SAHA], the “CD34+CD90+ population compared with that” value in [1] is given as “expanded CD34+CD90+ population”.

On to `CC(C)n1cnc2c(NCCc3ccc(O)cc3)nc(-c3csc4ccccc34)nc21` [SR1], for which, in [1], the “CD34+CD90+ population compared with that” value is on record as “expanded CD34+CD90+ population”.

With `CC(/C=C/C(=O)NO)=C\[C@@H](C)C(=O)c1ccc(N(C)C)cc1` [TSA, trichostatin], in [1], the “CD34+CD90+ population compared with that” value is “expanded CD34+CD90+ population” and the “absolute number of CD34+CD90+ cells” value is recorded as “expanded the absolute number of CD34+CD90+ cells more than that of other compounds”. Moreover, in the data set on PBSC CD34+ cells [2], the “expression of CD34+CD90+ cells after one day exposure” value is reported as “limit the expression of CD34+CD90+ cells”, the “growth rate compared with DMSO” value is listed as “about 2 times lower”, the “cell growth (cell number) of CD34+ cells” value is given as 28.3×10^4±0.49 and the “absolute number of CD34+CD90+ cells” value was “increased”. In addition, in the data set with PBSC CD34+ cells [2] (day 3, day 5 and day 7, p<0.05), the “expansion of CD34+CD90+ cells compared with DMSO treated cells” value is recorded as “preferential expansion of CD34+CD90+ cells”. For the same compound, in the data set with CD34+ cells [5] (TSA treatment), the “CD34+CD90+ cells less divided than CD34+CD90− cells” value is listed as 31.4% and the “CD34+CD90+ cells more divided than CD34+CD90− cells” value was “about 66.7%”. In addition, in the data set on CD34+ cells [5], the “CD34+ cells divided at least more than 4 times” value came out at 9.02%. Moreover, the “apoptotic cells (annexin V)” value with CD34+ cells [3] (50 nM) is “did not significantly increased apoptotic cells”. Moreover, the “size of colonies derived from CFU-GM compared with control group” value in the data set with PBMC CD34+ cells [4] is on record as “much larger than control group”. For the same compound, the “proportion of large (>50 clusters) and small (5-50 clusters) colonies” value in the data set with PBMC CD34+ cells [4] (FIG. 13B) was “gave mainly rise to large colonies”. In the data set on CB CD34+ cells (2 weeks after transplant, day 5 progeny of 2×10^4 CB CD34+ cells, vs cytokine alone), the “percentage of human CD45+ engraftment in peripheral blood” value is on record as “higher percentage of human CD45+ engraftment”. The “marrow-repopulating potential (human CD45+ cell engraftment in PB and BM)” value with CB CD34+ cells (8 weeks after transplantation) was “enhances the marrow-repopulating potential”. Moreover, the “lentiviral transduction for CD34+ cells ex vivo” value with PBMC CD34+ cells [6] was “promoted the lentiviral transduction”. The “percentage of CD34+GFP+ cells” value in the data set with PBMC CD34+ cells [6] (3 days culture with TSA, then lentiviral transduction, vs cells without treatment) was “higher than that of cells without treatment”. In the data set with PBSC CD34+ cells [7], the “levels of transcripts for GATA1, GATA2, HOXA9, HOXB4, PTEN, SALL4, p53, TPO and CD34 genes” value was “higher levels of transcripts”. The “expansion of CD34+CD90+ cells (reported)” value in data set [8] is listed as “reported to expand CD34+CD90+ cells”.

For the compound `Cn1nnc(-c2ccc3c(c2)[nH]c2nc(Cc4ccccc4)nc(NC4CCC(N)CC4)c23)n1` (stereo not drawn) [UM171], the total cell numbers result in the data set with CD34+ cells [9] is given as “very similar”.

`COc1cc2c(NC3CCN(C(C)C)CC3)nc(C3CCCCC3)nc2cc1OCCCN1CCCC1` [UNC0638]: the “CD34+CD90+ population compared with that” value in data set [1] is on record as “expanded CD34+CD90+ population”.

As for `CCCC(CCC)C(=O)O` [Valproic acid], in [8], the “expansion of CD34+CD90+ cells (reported)” value is “reported to expand CD34+CD90+ cells”.

Turning to `O=C1N[C@@H](Cc2ccccc2)C(=O)N2CCC[C@@H]2C(=O)N[C@@H](CCCCCC(=O)[C@@H]2CO2)C(=O)N[C@H]1Cc1ccccc1` [trapoxin] (cyclo(FF[dP][Aoe])), the “expansion of CD34+CD90+ cells (reported)” value in data set [8] was “reported to expand CD34+CD90+ cells”.
